Measured values reported in patent US20250295646A1, “METHODS OF USE OF T-TYPE CALCIUM CHANNEL MODULATORS” (Praxis Precision Medicines, Inc., priority 2022, published 2025).

Tested on: sigma band EEG power during NREM sleep
Assay: EEG/PSG: sigma band EEG power during NREM sleep
Type: in vivo, human
Details: for NREM Sigma Power Ratio from Baseline / NREM sigma power from baseline, LS Means: N = 10
Method: The effects of multiple doses of a wider dose range (Part A: 5, 10, 20 mg; Part B: 60, 80, 100, 120 mg) on sigma band EEG power during NREM sleep were also evaluated as part of the protocol described in Example 11, above. 24-hour EEG/PSG recordings were performed the day before dosing (baseline day) and after dosing on Days 4, 8, and 12 (for Part A) or Days 10, 17, 24, and 31 (for Part B). Part B also included placebo-treated participants for statistical comparisons.
The pharmacokinetic/pharmacodynamic (PKPD) effects of administration a compound of formula (II) on EEG were also evaluated. The recording of the NREM sigma absolute power was reported as a single summary value of a single night of sleep following each dose on pre-specified days (baseline and Days 4, 8 and 12 for Example 11, Part A and Days 10, 17, 24, and 31 for Part B, as set forth in Tables 22 and 23, above. Each NREM sigma absolute power value was paired with a model predicted average plasma concentration (Cave) that corresponded to the 24-hour EEG recording period on the respective study day. For example, if the period of EEG recording for an individual was from 6 am on Day 4 to 6 am on Day 5, then the corresponding Cave was calculated as the average of the individual's model-predicted concentrations (sampled every 30 minutes) from that same time period. The resulting PKPD data were analyzed in a mixed-effects modelling framework using NONlinear Mixed Effects Modeling (NONMEM) software. The change from baseline NREM sigma absolute power was specified as the outcome and the primary explanatory variable was the Cave of a compound of formula (II).
The population PK model was used to generate Cave for NREM sigma absolute power and concentrations for EO and EC gamma absolute power. For NREM sigma absolute power, the Cave was computed for the final day of each dose level over the EEG collection interval. For EO and EC gamma absolute power, concentrations at 4 hours post-dose and 23.75 hours post-dose were generated on the final day of each dose level. The final population PKPD models for NREM sigma absolute power and EO and EC gamma absolute power were then used to generate corresponding EEG responses.

Question: With `CC(C)(C)NC(=O)CN1CCC(CNC(=O)c2cc(F)cc(Cl)c2)CC1.Cl` [compound of formula (II), N-((1-(2-(tert-butylamino)-2-oxoethyl)piperidin-4-yl)methyl)-3-chloro-5-fluorobenzamide hydrochloride] as the compound, how does the “sigma band EEG power during NREM sleep, change from baseline” value (5-120 mg, plateaued after Day 17 (80 mg)) read?
Answer: The value was “dose-dependent decrease”.

Question: What about the “NREM sigma power, Formula (II) v. Placebo Difference” value (Day 10) of the same compound?
Answer: Its value is −0.597.

Question: What about the “NREM sigma power, Formula (II) v. Placebo Ratio” value (Day 10) of the same compound?
Answer: The value was 0.550.

Question: What about the “NREM Sigma Power Ratio from Baseline” value (Day 10 (60 mg)) of the same compound?
Answer: Its value is 0.581.

Question: What about the “NREM sigma power from baseline, LS Means” value (Day 10 (60 mg)) of the same compound?
Answer: The value was −0.542.

Question: And the “NREM sigma power, Formula (II) v. Placebo Difference” value (Day 17)?
Answer: The value was −0.697.

Question: What about the “NREM sigma power, Formula (II) v. Placebo Ratio” value (Day 17) of the same compound?
Answer: The value was 0.498.

Question: What about the “NREM Sigma Power Ratio from Baseline” value (Day 17 (80 mg)) of the same compound?
Answer: The value was 0.646.

Question: And the “NREM sigma power from baseline, LS Means” value (Day 17 (80 mg))?
Answer: The value was −0.437.

Question: And the “NREM sigma power, Formula (II) v. Placebo Difference” value (Day 24)?
Answer: The value was −0.729.

Question: And the “NREM sigma power, Formula (II) v. Placebo Ratio” value (Day 24)?
Answer: The value was 0.482.

Question: And the “NREM Sigma Power Ratio from Baseline” value (Day 24 (100 mg))?
Answer: Its value is 0.498.

Question: What about the “NREM sigma power from baseline, LS Means” value (Day 24 (100 mg)) of the same compound?
Answer: Its value is −0.698.

Question: And the “NREM sigma power, Formula (II) v. Placebo Difference” value (Day 31)?
Answer: The value was −0.679.

Question: And the “NREM sigma power, Formula (II) v. Placebo Ratio” value (Day 31)?
Answer: The value was 0.507.

Question: And the “NREM Sigma Power Ratio from Baseline” value (Day 31 (120 mg))?
Answer: Its value is 0.574.

Question: What about the “NREM sigma power from baseline, LS Means” value (Day 31 (120 mg)) of the same compound?
Answer: The value was −0.556.
